Data set [1] has as its system Staphylococcus aureus. Kind of data set: Bactericidal activity against Staphylococcus aureus ATCC 25923 at 2MIC measured within 3 hrs by time-kill assay relative to control. In kind it is functional.
Data set [2] in a line: Stability in BALB/C mouse serum measured up to 1440 mins by HPLC analysis. The data set is classed as ADME, cell-free.
The test system of data set [3] is Klebsiella pneumoniae. Kind of data set: Antibiofilm activity against Klebsiella pneumoniae ATCC 700603 incubated for 24 hrs by crystal violet staining based assay. In kind it is functional, organism-based.
Another data set concerns Lipopolysaccharide (LPS). Kind of data set: Binding affinity to LPS (unknown origin) assessed as bacterial killing at 2 times MIC preincubated for 1 hr followed by Escherichia coli ATCC 25922 addition and measured after 2 hrs by absorbance method relative to polymyxin B. The note with it: time 3.0 hrs.
Data set [4] relates to Klebsiella pneumoniae. Kind of data set: Disruption of membrane integrity in Klebsiella pneumoniae ATCC 700603 assessed as membrane creeping at 1 times MIC incubated for 0.5 to 2 hrs by scanning electron microscopy. The data set is classed as functional, organism-based. The note with it: time 0.5-2 hrs.
In data set [5] the test system is Cell membrane. Description: Disruption of membrane integrity in Klebsiella pneumoniae ATCC 700603 assessed as membrane shrinking at 1 times MIC measured within 0.5 to 2 hrs by scanning electron microscopy. The note with it: Klebsiella pneumoniae 700603, time 0.5-2 hrs. In kind it is subcellular.
Data set [6] concerns Klebsiella pneumoniae. Kind of data set: Antibacterial activity against Klebsiella pneumoniae ATCC 700603 infected in BALB/C mouse assessed as reduction in bacterial load in lung at 10 mg/kg, ip measured within 24 hrs by agar plate counting method (reference value: 2.77 x 10^7 CFU/mg). The data set is classed as functional.
Data set [7] concerns Klebsiella pneumoniae. Description: Antibacterial activity against Klebsiella pneumoniae ATCC 700603 infected in BALB/C mouse assessed as reduction in bacterial load at 5 to 10 mg/kg, ip by hematoxylin and eosin staining based assay. The data set is classed as functional, organism-based. The note with it: dose 5-10 mg/kg.
A short description of data set [8]: Toxicity in BALB/C mouse assessed as effect on spleen at 19 mg/kg, ip administered as single dose by hematoxylin and eosin staining based assay. In kind it is organism-based. The note with it: in vivo.
Data set [9] in a line: Toxicity in BALB/C mouse assessed as induction of tissue hemorrhage at 19 mg/kg, ip administered as single dose by hematoxylin and eosin staining based assay. In kind it is organism-based. The note with it: in vivo.
Data set [10] in a line: Toxicity in BALB/C mouse assessed as induction of inflammatory reaction at 19 mg/kg, ip administered as single dose by hematoxylin and eosin staining based assay. In kind it is organism-based. The note with it: in vivo.
Data set [11] is described as follows: Induction of nephrotoxicity in BALB/C mouse at 82 mg/kg, ip administered as single dose by hematoxylin and eosin staining based assay. In kind it is organism-based. The note with it: in vivo.
Data set [12] can be described thus: Induction of glomerulus hemorrhage in BALB/C mouse at 82 mg/kg, ip administered as single dose by hematoxylin and eosin staining based assay. In kind it is organism-based. The note with it: in vivo.
In a further data set the test system is A549. Kind of data set: Cytotoxicity against human A549 cells incubated for 12 hrs by MTT assay. The data set is classed as cell-based. The following applies: A549, 12 h. In general terms: Tetrazolium assays rely on reduction of a dye to a coloured formazan, in cell work by metabolically active cells.
In data set [13] the test system is Staphylococcus aureus. Kind of data set: Antibacterial activity against Staphylococcus aureus ATCC 25923 incubated with 2000 ug/ml trypsin for 6 hrs followed by bacterial addition and measured after 18 hrs by CLSI based broth dilution method. The data set is classed as functional, organism-based. The following applies: dose 2000.0 µg/ml, time 23.0 hrs. Background: Dilution methods test growth across graded concentrations, often in twofold steps.

In data set [14] the test system is Klebsiella pneumoniae. Description: Antibacterial activity against Klebsiella pneumoniae ATCC 700603 incubated with 2000 ug/ml trypsin for 6 hrs followed by bacterial addition and measured after 18 hrs by CLSI based broth dilution method. The data set is classed as functional, organism-based. The note with it: dose 2000.0 µg/ml, time 23.0 hrs.
In data set [15] the test system is Cell membrane. Kind of data set: Induction of outer membrane permeabilization in Klebsiella pneumoniae ATCC 700603 at 4MIC measured within 20 mins by N-phenylnaphthylamine dye based fluorescent method. The data set is classed as subcellular. The following applies: Klebsiella pneumoniae 700603.
Data set [16] deals with Klebsiella pneumoniae. Description: Antibacterial activity against Klebsiella pneumoniae ATCC 700603 infected in BALB/C mouse assessed as reduction in bacterial load at 5 mg/kg, ip by hematoxylin and eosin staining based assay. In kind it is functional, organism-based.
The nature of data set [17]: Toxicity in BALB/C mouse infected with Klebsiella pneumoniae ATCC 700603 assessed as hepatic hemorrhage at 5 mg/kg, ip by hematoxylin and eosin staining based assay. In kind it is organism-based. The note with it: in vivo.

Each structure is given as a SMILES string. The source made the active and inactive calls. No cut-off for these calls is given here. Where a SMILES comes first, the peptide text is derived from it. Bridges are numbered along the chain shown (N, C = ends). [ ]: non-standard residue; d: D form. The star is where a group is joined. X1 = CC[C@H](C)CCCCC(=O)*; Dab = NCC[C@H](N)C(=O)O

A word on the half-life: it is the time in which the quantity being followed falls by half. A lower half-life goes with fast loss. What is called IC50 is the concentration at which inhibition is half-maximal. The low end stands for higher potency, the high end for lower potency.

Regarding `NCCCC[C@H](NC(=O)[C@H](CCCCN)NC(=O)[C@H](Cc1c[nH]c2ccccc12)NC(=O)[C@H](CCCCN)NC(=O)[C@H](CCCCN)NC(=O)[C@H](Cc1c[nH]c2ccccc12)NC(=O)[C@H](Cc1c[nH]c2ccccc12)NC(=O)[C@@H](N)CCCCN)C(=O)N[C@@H](Cc1c[nH]c2ccccc12)C(=O)N[C@@H](Cc1c[nH]c2ccccc12)C(N)=O` (H-KWWKKWKKWW-NH2), the Activity with Staphylococcus aureus [1] is 100%; in the data set with Klebsiella pneumoniae [3], “Dose-Dependent Effect”; with Klebsiella pneumoniae [6] it was 3.26 10^3CFU/mg; in data set [8], “Toxic”; in data set [9], “Toxic”; in data set [10], “Toxic”. The Activity entry in data set [11] and in data set [12] was “Toxic” each time. For the same molecule, the half-life in data set [2] came out at 50.1 min. For the same molecule, the fold change (FC) in the data set with Lipopolysaccharide (LPS) stood at 2. The result in the data set with Klebsiella pneumoniae [4], with Cell membrane [5] and in the data set with Klebsiella pneumoniae [7] was Active. For the same molecule, the IC50 with A549 was determined as 87.5 µM.

On to `CC[C@H](C)CCCCC(=O)N[C@@H](CCN)C(=O)N[C@H](C(=O)N[C@@H](CCN)C(=O)N[C@H]1CCNC(=O)[C@H]([C@@H](C)O)NC(=O)[C@H](CCN)NC(=O)[C@H](CCN)NC(=O)[C@H](CC(C)C)NC(=O)[C@@H](Cc2ccccc2)NC(=O)[C@H](CCN)NC1=O)[C@@H](C)O` (X1-[Dab]T[Dab][Dab][Dab][dF]L[Dab][Dab]T; lactam 4-C), for which the result in the data set with Staphylococcus aureus [13], with Klebsiella pneumoniae [14] and in the data set with Cell membrane [15] was Active. Besides, the result with Klebsiella pneumoniae [16] was inactive. Also, the Activity result in data set [17] is recorded as “Toxic”.

(Values after ChEMBL document CHEMBL4823282, “Novel Broad-Spectrum Antimicrobial Peptide Derived from Anoplin and Its Activity on Bacterial Pneumonia in Mice” (J Med Chem, 2021).)
